Reference: US20250120989A1, “BRIDGED TRICYCLIC CARBAMOYLPYRIDONE COMPOUNDS AND USES THEREOF” (priority 2023, published 2025)
Converted amounts (≈) assume the structure as drawn.

What was measured:
[1] = Dog PO pharmacokinetic studies with P-gp inhibitor encequidar mesylate (Example E); assay type: in vivo, beagle dog; conditions: for AUCinf, CMAX and oral bioavailability when administered with encequidar mesylate versus without / AUC(0-inf) / Cmax / bioavailability: dosed compound measured; for AUCinf, CMAX and oral bioavailability when administered with encequidar mesylate versus without: Table 5 versus Table 4, FIG. 1 and 2; for AUC(0-inf) / Cmax / bioavailability: male, beagle, plasma, dog PO 4 mg/kg, encequidar mesylate 5 mg-eq/kg PO about 30 min before
Method: Three male beagle dogs were fasted overnight. […] Individual doses were calculated based on body weights recorded on the day of dose administration. […] This was followed by an additional 20 mL of water administered via oral gavage. The total flush volume was approximately 30 mL. Individual doses were administered on a […]. In all cases, food was returned at approximately 4 hours after dosing. […] Bioanalysis was carried out according to Example C.

HIV-1 (IIIB) = assay: microbe, parasite or virus in culture; assay type: cell-based; conditions: Human immunodeficiency virus 1, MT4, 120 h; HIV-1 (IIIB) replication in MT-4 cells, 5 days, Cell Titer Glo; read-out: MT4 EC50
physchem = conditions: FaSSIF, 23 °C, thermodynamic from solid
in vitro = conditions: human, uninfected MT-4 cells

Structure (SMILES)	AUCinf, CMAX and oral bioavailability of Intermediate C when prodrug is administered with encequidar mesylate versus without ([1]; dog PO, Intermediate C measured, Table 5 Entry 3 versus Table 4 Entry 3, FIG. 3)	EC50 (HIV-1 (IIIB)) [µM]	solubility thermodynamic at 24 h (physchem) [µg/mL]	CC50 at 5 days (in vitro) [µM]	AUCinf, CMAX and oral bioavailability when administered with encequidar mesylate versus without ([1]; dog PO)	AUC(0-inf) [1] [µM·h]	Cmax [1] [µM]	bioavailability [1] [%]
COC1=NO[C@@]2(CC[C@H](C)N3C[C@H]2n2cc(C(=O)NCc4ccc(F)cc4F)c(=O)c(OCOC(=O)OCCOP(=O)(O)O)c2C3=O)C1 [Compound 3, (((3′S,5S,7′R)-10′-((2,4-difluorobenzyl)carbamoyl)-3-methoxy-3′-methyl-1′,11′-dioxo-1′,4′,5′,11′-tetrahydro-3′H,4H,7′H-spiro[isoxazole-5,6′-[2,7]methanopyrido[1,2-a][1,4]diazonin]-12′-yl)oxy)methyl (2-(phosphonooxy)ethyl) carbonate]	increased	0.00046	6650 (≈ 9.49 mM)	13	–	–	–	–
CC[C@@H](COC(=O)OCOc1c2n(cc(C(=O)NCc3ccc(F)cc3F)c1=O)[C@@H]1CN(C2=O)[C@@H](C)CC[C@]12CC(C)=NO2)OP(=O)(O)O [Compound 66, (((3′S,5S,7′R)-10′-((2,4-difluorobenzyl)carbamoyl)-3,3′-dimethyl-1′,11′-dioxo-1′,4′,5′,11′-tetrahydro-3′H,4H,7′H-spiro[isoxazole-5,6′-[2,7]methanopyrido[1,2-a][1,4]diazonin]-12′-yl)oxy)methyl ((S)-2-(phosphonooxy)butyl) carbonate]	–	0.00207	4270 (≈ 5.99 mM)	12.8	–	–	–	–
CC[C@@H](COC(=O)OCOc1c2n(cc(C(=O)NCc3ccc(F)cc3F)c1=O)[C@@H]1CN(C2=O)[C@@H](C)CC[C@]12CC(OC)=NO2)OP(=O)(O)O [Compound 67, (((3′S,5S,7′R)-10′-((2,4-difluorobenzyl)carbamoyl)-3-methoxy-3′-methyl-1′,11′-dioxo-1′,4′,5′,11′-tetrahydro-3′H,4H,7′H-spiro[isoxazole-5,6′-[2,7]methanopyrido[1,2-a][1,4]diazonin]-12′-yl)oxy)methyl ((S)-2-(phosphonooxy)butyl) carbonate]	–	0.00241	5180 (≈ 7.12 mM)	14.4	–	–	–	–
COC1=NO[C@@]2(CC[C@H](C)N3C[C@H]2n2cc(C(=O)NCc4ccc(F)cc4F)c(=O)c(OCOC(=O)OC[C@H](C)COP(=O)(O)O)c2C3=O)C1 [Compound 68, (((3′S,5S,7′R)-10′-((2,4-difluorobenzyl)carbamoyl)-3-methoxy-3′-methyl-1′,11′-dioxo-1′,4′,5′,11′-tetrahydro-3′H,4H,7′H-spiro[isoxazole-5,6′-[2,7]methanopyrido[1,2-a][1,4]diazonin]-12′-yl)oxy)methyl ((S)-2-methyl-3-(phosphonooxy)propyl) carbonate]	–	0.00211	4620 (≈ 6.35 mM)	16.1	–	–	–	–
CC1=NO[C@@]2(CC[C@H](C)N3C[C@H]2n2cc(C(=O)NCc4ccc(F)cc4F)c(=O)c(OCOC(=O)OC[C@H](C)COP(=O)(O)O)c2C3=O)C1 [Compound 69, (((3′S,5S,7′R)-10′-((2,4-difluorobenzyl)carbamoyl)-3,3′-dimethyl-1′,11′-dioxo-1′,4′,5′,11′-tetrahydro-3′H,4H,7′H-spiro[isoxazole-5,6′-[2,7]methanopyrido[1,2-a][1,4]diazonin]-12′-yl)oxy)methyl ((S)-2-methyl-3-(phosphonooxy)propyl) carbonate]	–	0.0029	4600 (≈ 6.46 mM)	17.3	–	–	–	–
CC1=NO[C@@]2(CC[C@H](C)N3C[C@H]2n2cc(C(=O)NCc4ccc(F)cc4F)c(=O)c(O)c2C3=O)C1 [Intermediate B, (3′S,5S,7′R)—N-(2,4-difluorobenzyl)-12′-hydroxy-3,3′-dimethyl-1′,11′-dioxo-1′,4′,5′,11′-tetrahydro-3′H,4H,7′H-spiro[isoxazole-5,6′-[2,7]methanopyrido[1,2-a][1,4]diazonine]-10′-carboxamide]	–	–	2 (≈ 0.00411 mM)	–	increased	3980 ± 762	80.8 ± 4.9	70.3 ± 1.8
COC1=NO[C@@]2(CC[C@H](C)N3C[C@H]2n2cc(C(=O)NCc4ccc(F)cc4F)c(=O)c(O)c2C3=O)C1 [Intermediate C, (3′S,5S,7′R)—N-(2,4-difluorobenzyl)-12′-hydroxy-3-methoxy-3′-methyl-1′,11′-dioxo-1′,4′,5′,11′-tetrahydro-3′H,4H,7′H-spiro[isoxazole-5,6′-[2,7]methanopyrido[1,2-a][1,4]diazonine]-10′-carboxamide]	–	–	–	–	increased	2300 ± 171	62 ± 3.5	82.3 ± 13.4
